Data taken from publication PMC10706121, “Bioactive Polyketides from the Natural Complex of the Sea Urchin-Associated Fungi Penicillium sajarovii KMM 4718 and Aspergillus protuberus KMM 4747” (International Journal of Molecular Sciences, 2023).
Entries after “also recorded” stand apart in the source; their conditions may differ. Read-outs that look alike come from different tables or passages of the source.

Tests used:
[1] = tested on: normal rat cardiomyocyte H9c2 cells; assay: Cell viability assay (MTT), cytotoxic activity; type: cell-based; details: for decrease of H9c2 cell viability: 100 µM; for IC50: 24 h, MTT, read-out: H9c2 IC50 (cytotoxic effect)
Description: (§1) The HepG2 and H9c2 cells were cultured in DMEM medium (Biolot, St. Petersburg, Russia) containing 10% fetal bovine serum (Biolot, St. Petersburg, Russia) and 1% penicillin/streptomycin (Biolot, St. Petersburg, Russia) at 37 °C in a humidified atmosphere with 5% (v/v) CO2.
(§2) The HepG2 and H9c2 cells were seeded at concentrations of 5× 10^3 and 3×10^3 cell/well, respectively, and the experiments were started after 24 h. The compounds at concentrations up to 100 µM were added into the wells for 24 h, and the viability of the cells was measured by an MTT (3-(4,5-dimethylthiazol-2-yl)-2,5-diphenyltetrazolium bromide) assay, which was performed according to the manufacturer’s instructions (Sigma-Aldrich, Munich, Germany). All compounds were dissolved with DMSO so that the final concentration of DMSO in the cell culture was not more than 1%. Moreover, DMSO was used as a control. The absorbance of the resulting solution was measured at 570 nm with a microplate reader MultiscanFC (ThermoLabsystems Inc., Beverly, MA, USA). The results are presented as a percent of the control data and calculated IC50.

[2] = Cell viability assay (MTT), cytotoxic activity; type: cell-based, human; details: 24 h, MTT; for viability at 24 h, 10 µM / viability at 24 h, 100 µM: percent of control
Description: as §1, §2

[3] = target: T1, urease from Canavalia ensiformis (Canavalia ensiformis, UniProt P07374); assay: Urease inhibition assay (indophenol method, cell-free); type: biochemical; details: for effect on urease activity: at concentrations of up to 100 µM
T1 construct: purchased Sigma
Description: A reaction mixture consisting of 25 µL of enzyme solution (urease from Canavalia ensiformis, Sigma, 1U final concentration) and 5 µL of test compounds dissolved in water (10–300.0 µM final concentration) was preincubated at 37 °C for 60 min in 96-well plates. Then, 55 µL of phosphate-buffered solution with […] of urea was added to each well and incubated at 37 °C for 10 min. The urease inhibitory activity was estimated by determining ammonia production using the indophenol method. Briefly, 45 µL of phenol reagent (1% w/v phenol and 0.005% w/v sodium nitroprusside) and 70 µL of alkali reagent (0.5% w/v NaOH and 0.1% active chloride NaClO) were added to each well. The absorbance was measured after 50 min at 630 nm using a MultiskanFS microplate reader (Thermo Scientific Inc., Beverly, MA, USA). All reactions were performed in triplicate in a final volume of 200 µL. The pH was maintained at 7.3–7.5 in all assays. DMSO 5% was used as a positive control.

[4] = tested on: Escherichia coli VKPM (B-7935); assay: Antimicrobial activity, inhibition of microbial growth (OD620); type: cell-based; details: for inhibition at 100 µM: Escherichia coli, read-out: Inhibition of Microbial Growth, E. coli
Description: (§3) The yeast-like fungi of Candida albicans KMM 455 and bacterial strains Staphylococcus aureus ATCC 21027 and Escherichia coli VKPM (B-7935) (Collection of Marine Microorganisms PIBOC FEB RAS) were cultured on solid-medium Mueller Hinton broth with agar (16.0 g/L) in a Petri dish at 37 °C for 24 h.
(§4) The assays were performed in 96-well microplates in appropriate Mueller Hinton broth. Each well contained 90 µL of bacterial or of a yeast-like fungi suspension (10^9 CFU/mL). Then, 10 µL of a compound diluted at concentrations ranging from 1.5 to 100.0 µM using a 2-fold dilution was added (DMSO concentration < 1%). Culture plates were incubated overnight at 37 °C, and the OD620 was measured using a Multiskan FS spectrophotometer (Thermo Scientific Inc., Beverly, MA, USA). The antibiotic gentamicin and antifungal agent nitrofungin were used as positive controls at 1 mg/mL; 1% DMSO in PBS served as a negative control.

[5] = tested on: Staphylococcus aureus ATCC 21027; assay: as above; type: cell-based; details: for inhibition at 100 µM: Staphylococcus aureus
Description: as §3, §4

Candida albicans KMM 455 = assay: as above; type: cell-based; details: for inhibition at 100 µM: Candida albicans
Description: as §3, §4

[6] = tested on: S. aureus-infected H9c2 cardiomyocytes; assay: Staphylococcus aureus-induced infection of H9c2 cardiomyocytes (in vitro model of infectious myocarditis, MTT); type: cell-based, rat; details: 1 and 10 µM
Description: The H9c2 cells were seeded at concentrations of 3 × 10^3 cell/well. After 24 h, the cell culture media was changed with an S. aureus bacterial suspension (10^2 CFU/mL) prepared in full DMEM culture media. The investigated compounds at concentrations of 1 and 10 µM were added after 1 h and the cells were incubated for 48 h. The S. aureus suspension with compounds at the same concentrations was used as a control. MTT reagent was added to all wells and formazan production was detected with the microplate reader MultiscanFC (ThermoLabsystems Inc., Beverly, MA, USA). The viability of S. aureus-infected cells was calculated as:Viability, relative units = (OD cells+Sa +comp − OD Sa+comp)/(OD cells+Sa − OD Sa)

[7] = tested on: human hepatocarcinoma HepG2 cells; assay: Cell viability assay (MTT), cytotoxic activity; type: cell-based; details: for decrease of HepG2 cell viability: 100 µM; for IC50: 24 h, MTT, read-out: HepG2 IC50 (cytotoxic effect)
Description: as §1, §2

[8] = human, HepG2 cells (human hepatocarcinoma), read-out: HepG2 IC50 (cytotoxic effect)
[9] = human, HepG2 hepatocarcinoma cells
[10] = rat, H9c2 cells (normal rat cardiomyocytes), read-out: H9c2 IC50 (cytotoxic effect)
[11] = ATCC21027, compounds tested at 100 µM, read-out: Inhibition of Microbial Growth, S. aureus
[12] = KMM455, compounds tested at 100 µM, read-out: Inhibition of Microbial Growth, C. albicans
[13] = human, read-out: HepG2 Cell Viability
[14] = rat, read-out: H9c2 Cell Viability

T1 sequence (P07374 whole entry, looked up): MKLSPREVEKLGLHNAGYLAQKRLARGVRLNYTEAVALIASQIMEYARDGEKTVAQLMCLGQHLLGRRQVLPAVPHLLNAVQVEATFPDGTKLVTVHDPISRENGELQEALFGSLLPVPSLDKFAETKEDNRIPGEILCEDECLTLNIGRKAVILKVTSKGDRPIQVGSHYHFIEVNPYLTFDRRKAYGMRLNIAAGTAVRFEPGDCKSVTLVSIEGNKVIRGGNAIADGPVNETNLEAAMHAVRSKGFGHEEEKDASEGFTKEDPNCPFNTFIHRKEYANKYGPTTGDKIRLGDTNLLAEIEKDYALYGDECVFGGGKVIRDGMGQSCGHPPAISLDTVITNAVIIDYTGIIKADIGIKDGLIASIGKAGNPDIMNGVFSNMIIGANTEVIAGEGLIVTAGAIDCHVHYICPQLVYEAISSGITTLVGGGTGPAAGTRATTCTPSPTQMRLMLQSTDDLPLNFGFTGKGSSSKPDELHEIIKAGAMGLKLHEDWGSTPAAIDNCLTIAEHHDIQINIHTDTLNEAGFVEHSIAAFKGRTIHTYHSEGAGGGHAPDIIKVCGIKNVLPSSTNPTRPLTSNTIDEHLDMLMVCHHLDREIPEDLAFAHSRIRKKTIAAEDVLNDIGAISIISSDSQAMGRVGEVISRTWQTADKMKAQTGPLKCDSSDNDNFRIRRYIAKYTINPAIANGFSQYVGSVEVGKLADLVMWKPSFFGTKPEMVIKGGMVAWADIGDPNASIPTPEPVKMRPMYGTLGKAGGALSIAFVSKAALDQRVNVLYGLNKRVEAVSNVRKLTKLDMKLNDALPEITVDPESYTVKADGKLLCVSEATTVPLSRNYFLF

Structure (SMILES) | decrease of H9c2 cell viability [1] [%] | IC50 at 24 h [2, 8] [µM] | viability at 24 h, 10 µM [2, 9] [%] | viability at 24 h, 100 µM [2, 9] [%] | viability at 24 h, 10 µM ([2]; rat, H9c2 cardiomyocyte cells) [%] | viability at 24 h, 100 µM ([2]; rat, H9c2 cardiomyocyte cells) [%] | IC50 at 24 h [2, 10] [µM] | IC50 [3] [µM] | effect on urease activity [3] | inhibition at 100 µM ([4]; compounds tested at 100 µM) [%] | inhibition at 100 µM [5, 11] [%] | inhibition at 100 µM (Candida albicans KMM 455; [12]) [%] | decrease of HepG2 cell viability [7] | also measured
Cc1cc(O)cc2oc(C[C@H](C)O)cc(=O)c12 [Compound 3, (2′S)-7-hydroxy-2-(2′-hydroxypropyl)-5-methylchromone] | 25.7 | > 100 | 91.7 ± 1.5 | 101 ± 3.9 | 96.4 ± 2.1 | 74.3 ± 3.2 | > 100 | > 100 | no effect; also recorded: did not show any effect | < 10 | 17.7 ± 0.3 | < 10 |  | 
COC1=CC(=O)c2c(O)cc(O)cc2[C@@]1(C)O [Compound 1, sajaroketide A] | 34.6 | > 100 | 108 ± 3.2 | 107 ± 3.9 | 83.6 ± 4.4 | 65.4 ± 4.8 | > 100 | > 100 | no effect; also recorded: very poor | 25.4 ± 1 | 35.1 ± 0.9 | < 10 |  | 
COC1=CC(=O)c2c(O)cc(OC)cc2[C@@]1(C)O [Compound 2, sajaroketide B] | 21.0 | > 100 | 87.3 ± 4.1 | 76.9 ± 2.1 | 96 ± 1.9 | 79 ± 3.4 | > 100 | 98.5 ± 0.8 |  | < 10 | < 10 | < 10 |  | effect on the viability of S. aureus-infected H9c2 cardiomyocytes [6]: did not show any statistical effect; Inhibition of Microbial Growth, E. coli ([4]; compounds tested at 100 µM): inactive; Inhibition of Microbial Growth, S. aureus ([5]; compounds tested at 100 µM): inactive
COC1=CC(=O)C[C@@H](C)[C@]12Oc1c(Cl)c(O)cc(OC)c1C2=O [Compound 9, 6-O-desmethylgriseofulvin] |  | > 100 | 91.5 ± 6.8 | 84.2 ± 3.2 | 97.4 ± 8.1 | 92.9 ± 3.7 | > 100 | > 100 | no effect; also recorded: did not show any effect | ~23 | ~23 | < 10 |  | Inhibition of Microbial Growth, E. coli ([4]; compounds tested at 100 µM, 100 µM): 23.4 ± 1.8%
CC1=CC(=O)OCC1 [Compound 11, 5,6-dihydro-4-methyl-2H-pyran-2-one] |  |  |  |  |  |  |  | 11.4 ± 1 |  |  |  |  | 23.4% | viability at 24 h, 10 µM [2, 13]: 87.5 ± 5.3%; viability at 24 h, 100 µM [2, 13]: 76.6 ± 2.4%; IC50 at 24 h ([2]; human, read-out: HepG2 IC50 (cytotoxic effect)): > 100 µM; viability at 24 h, 10 µM [2, 14]: 95.9 ± 0.6%; viability at 24 h, 100 µM [2, 14]: 89 ± 2.9%; IC50 at 24 h ([2]; rat, read-out: H9c2 IC50 (cytotoxic effect)): > 100 µM; effect on the viability of S. aureus-infected H9c2 cardiomyocytes [6]: did not show any statistical effect; inhibition at 100 µM [4]: < 10%; inhibition at 100 µM ([5]; ATCC21027, read-out: Inhibition of Microbial Growth, S. aureus): < 10%; inhibition at 100 µM (Candida albicans KMM 455; KMM455, read-out: Inhibition of Microbial Growth, C. albicans): < 10%; Inhibition of Microbial Growth, C. albicans (Candida albicans KMM 455; compounds tested at 100 µM): did not affect
Cc1cc(O)cc2oc3cc(O)cc(O)c3c(=O)c12 [Compound 5, norlichexanthone] | 51.0 | ~100 | 88 ± 4.9 | 52.6 ± 3 | 86.3 ± 6.3 | 49 ± 1.6 | ~100 | 15.3 ± 2.1 |  | 27.9 ± 3.3 | 20.8 ± 6.5 | < 10 | 47.4% | IC50 [7]: > 100 µM; IC50 [1]: 97.4 ± 2.2 µM
COC1=CC(=O)C[C@@H](C)[C@]12Oc1c(Cl)c(OC)cc(OC)c1C2=O [Compound 8, griseofulvin, reference compound] | 28.4 | 77.8 ± 1.3 | 81 ± 2.1 | 39.9 ± 0.7 | 89.8 ± 2.7 | 71.6 ± 3.7 | > 100 | 10.1 ± 0.6 |  | 16.8 ± 4.5 | 11.5 ± 4.3 | < 10 | 60.1% | 
Cc1cc(O)c(O)c2oc3cc(O)cc(O)c3c(=O)c12 [Compound 7, 1,3,5,6-tetrahydroxy-8-methylxanthone] |  | ~100 | 77.1 ± 1.4 | 57.4 ± 4.2 | 98 ± 0.9 | 52.9 ± 1.5 | ~100 | 100 |  | < 10 | < 10 | 15.4 ± 2.1 | 42.6 µM | IC50 [7]: > 100 µM; IC50 [1]: > 100 µM
